Columns and labels:
[1] = system: pS6K1 in MCF7 (measure of mTORC1 activity); test: AlphaLISA Ultra pS6K1 assay; format: cell-based; conditions: Homo sapiens, MCF7, 2 h, MCF-7 cells, 2 hours compound incubation
Description: (§1) Assay Protocol: • 1. […] 12,000˜16,000 cells will be seeded in 36 μL medium per well. • 2. Change the culture medium with fresh medium and incubate for another 2 hours. • 3. Add 12 μL (4λ) compounds into the cell plate by HAMILTON. Final DMSO concentration is 0.5%. Incubate for 2 hours. • 4. Aspirate 38 μL by HAMILTON, 10 μL rest per well. • 5. Add 10 μL 2× lysis buffer using HAMILTON; total volume in wells is 20 μL. Allow cells to shake for 30 min. Cover plate by plastic foil and store plate at −80° C. up to analysis. • 6. […] Add 5 ul acceptor beads into assay plate and incubation for 2 hours • 8. Add 5 ul donor beads and incubation for 2 hours • 9. Count the plate by EnSpire Multimode Plate Reader

[2] = system: pAKT in MCF7 (measure of mTORC2 activity); test: AlphaLISA Ultra pAKT assay; format: cell-based; conditions: Homo sapiens, MCF7, 2 h, MCF-7 cells, 2 hours compound incubation
Description: as §1, with “16,000˜20,000” for “12,000˜16,000”, “(4×)” for “(4λ)”

SMILES	IC50 [1] [nM]	IC50 [2] [nM]
C[C@H]1CN(c2cc(F)c(F)c(F)c2)CCN1C(=O)c1cc(CN2CCN(c3ccccc3Cl)CC2)cn1C [Example I-88, (S)-(4-((4-(2-chlorophenyl)piperazin-1-yl)methyl)-1-methyl-1H-pyrrol-2-yl)(2-methyl-4-(3,4,5-trifluorophenyl)piperazin-1-yl)methanone]	1000 to 3000	> 10000
Cc1c(CN2CCN(c3ccccc3Cl)CC2)cc(C(=O)N2CCN(c3cc(F)c(F)c(F)c3)C[C@@H]2C)n1C [Example I-89, (S)-(4-((4-(2-Chlorophenyl)piperazin-1-yl)methyl)-1,5-dimethyl-1H-pyrrol-2-yl)(2-methyl-4-(3,4,5-trifluorophenyl)piperazin-1-yl)methanone]	3000 to 10000	> 10000
Cc1c(CN2CCN(c3ncccc3Cl)CC2)cc(C(=O)N2CCN(c3cccc(Cl)c3)C[C@@H]2C)n1C [Example I-90, (S)-(4-(3-chlorophenyl)-2-methylpiperazin-1-yl)(4-((4-(3-chloropyridin-2-yl)piperazin-1-yl)methyl)-1,5-dimethyl-1H-pyrrol-2-yl)methanone]	1000 to 3000	> 3000
Cc1c(CN2CCN(c3ccccc3Cl)CC2)cc(C(=O)N2CCn3c(nc4ccccc43)C2)n1C [Example I-91, (4-((4-(2-chlorophenyl)piperazin-1-yl)methyl)-1,5-dimethyl-1H-pyrrol-2-yl)(3,4-dihydrobenzo[4,5]imidazo[1,2-a]pyrazin-2(1H)-yl)methanone]	10 to 1000	> 5000
Cc1c(CN2CCN(c3ncccc3Cl)CC2)cc(C(=O)N2CCN(c3ccc(F)cc3)C[C@@H]2C)n1C [Example I-92, (S)-(4-((4-(3-chloropyridin-2-yl)piperazin-1-yl)methyl)-1,5-dimethyl-1H-pyrrol-2-yl)(4-(4-fluorophenyl)-2-methylpiperazin-1-yl)methanone]	10 to 1000	> 1000
Cc1c(CN2CCN(c3ccccc3Cl)CC2)cc(C(=O)N2CCN(c3cc(F)cc(F)c3)C[C@@H]2C)n1C [Example I-93, (S)-(4-((4-(2-chlorophenyl)piperazin-1-yl)methyl)-1,5-dimethyl-1H-pyrrol-2-yl)(4-(3,5-difluorophenyl)-2-methylpiperazin-1-yl)methanone]	10 to 1000	> 5000
C[C@H]1CN(c2cc(F)cc(F)c2)CCN1C(=O)c1cc(CN2CCN(c3ccccc3Cl)CC2)cn1C [Example I-94, (S)-(4-((4-(2-chlorophenyl)piperazin-1-yl)methyl)-1-methyl-1H-pyrrol-2-yl)(4-(3,5-difluorophenyl)-2-methylpiperazin-1-yl)methanone]	10 to 1000	> 5000
Cc1c(CN2CCN(c3ccccc3Cl)CC2)cc(C(=O)N2CCN(c3ccc(F)cc3)C[C@@H]2C)n1C [Example I-95, (S)-(4-((4-(2-chlorophenyl)piperazin-1-yl)methyl)-1,5-dimethyl-1H-pyrrol-2-yl)(4-(4-fluorophenyl)-2-methylpiperazin-1-yl)methanone]	10 to 1000	> 3000
Cc1c(CN2CCN(c3ccccc3Cl)CC2)cc(C(=O)N2CCN(c3cc(F)cc(F)c3)CC2)n1C [Example I-96, (4-((4-(2-chlorophenyl)piperazin-1-yl)methyl)-1,5-dimethyl-1H-pyrrol-2-yl)(4-(3,5-difluorophenyl)piperazin-1-yl)methanone]	10 to 1000	> 3000
Cc1c(CN2CCN(c3ccccc3N=[N+]=[N-])CC2)cc(C(=O)N2CCN(c3ccccc3)CC2)n1C [Example I-97, (4-((4-(2-azidophenyl)piperazin-1-yl)methyl)-1,5-dimethyl-1H-pyrrol-2-yl)(4-phenylpiperazin-1-yl)methanone]	1000 to 3000	> 5000
Cc1c(CN2CCN(c3ncccc3Cl)CC2)cc(C(=O)N2CCN(c3cccc(Cl)c3)CC2)n1C [Example I-98, 1-({5-[4-(3-Chlorophenyl)piperazine-1-carbonyl]-1,2-dimethyl-1H-pyrrol-3-yl}methyl)-4-(3-chloropyridin-2-yl)piperazine]	10 to 1000	> 3000
Cc1c(CN2CCN(c3ncccc3Cl)CC2)cc(C(=O)N2CCN(c3cccc(C#N)c3)C[C@@H]2C)n1C [Example I-99, (S)-3-(4-(4-((4-(3-chloropyridin-2-yl)piperazin-1-yl)methyl)-1,5-dimethyl-1H-pyrrole-2-carbonyl)-3-methylpiperazin-1-yl)benzonitrile]	10 to 1000	> 3000
Cc1c(CN2CCN(c3ccccc3Cl)CC2)cc(C(=O)N2CCN(c3ccccc3C#N)C[C@@H]2C)n1C [Example I-100]	10 to 1000	> 10000
C[C@H]1CN(c2cccc(F)c2C#N)CCN1C(=O)c1cc(CN2CCN(c3ccccc3Cl)CC2)cn1C [Example I-101, (S)-2-(4-(4-((4-(2-chlorophenyl)piperazin-1-yl)methyl)-1-methyl-1H-pyrrole-2-carbonyl)-3-methylpiperazin-1-yl)-6-fluorobenzonitrile]	10 to 1000	> 5000
Cc1c(CN2CCN(c3ccccc3Cl)CC2)cc(C(=O)N2CCN(c3cccc(F)c3C#N)C[C@@H]2C)n1C [Example I-102, (S)-2-(4-(4-((4-(2-chlorophenyl)piperazin-1-yl)methyl)-1,5-dimethyl-1H-pyrrole-2-carbonyl)-3-methylpiperazin-1-yl)-6-fluorobenzonitrile]	10 to 1000	> 10000
C[C@@H]1CN(Cc2cc(C(=O)N3CCN(c4ccc(F)cc4)CC3)n(C)c2)CCN1c1ccccc1Cl [Example I-103]	1000 to 3000	> 10000
Cc1c(CN2CCN(c3ccccc3Cl)CC2)cc(C(=O)N2CCN(c3cccc(N=[N+]=[N-])c3)C[C@@H]2C)n1C [Example I-104, (S)-(4-(3-azidophenyl)-2-methylpiperazin-1-yl)(4-((4-(2-chlorophenyl)piperazin-1-yl)methyl)-1,5-dimethyl-1H-pyrrol-2-yl)methanone]	1000 to 3000	> 5000
Cc1c(CN2CCN(c3ccccc3Cl)CC2)cc(C(=O)N2CCN(c3ccc(F)c(C#N)c3)CC2)n1C [Example I-105, 5-(4-(4-((4-(2-Chlorophenyl)piperazin-1-yl)methyl)-1,5-dimethyl-1H-pyrrole-2-carbonyl)piperazin-1-yl)-2-fluorobenzonitrile]	10 to 1000	> 3000
CC(c1cc(C(=O)N2CCN(c3ccccc3)CC2)n(C)c1)N1CCN(c2ccccc2Cl)CC1 (centres unmarked) [Example I-106, 1-(2-Chlorophenyl)-4-{1-[1-methyl-5-(4-phenylpiperazine-1-carbonyl)-1H-pyrrol-3-yl]ethyl}piperazine]	1000 to 3000	> 3000
Cc1c(CN2CCN(c3ccccc3Cl)CC2)cc(C(=O)N2CCN(c3cccc(F)c3C#N)CC2)n1C [Example I-107, 2-(4-(4-((4-(2-chlorophenyl)piperazin-1-yl)methyl)-1,5-dimethyl-1H-pyrrole-2-carbonyl)piperazin-1-yl)-6-fluorobenzonitrile]	10 to 1000	> 3000
Cc1c(CN2CCN(c3ccccc3Cl)CC2)cc(C(=O)N2CCN(c3cccc(F)c3)CC2)n1C [Example I-108, (4-((4-(2-Chlorophenyl)piperazin-1-yl)methyl)-1,5-dimethyl-1H-pyrrol-2-yl)(4-(3-fluorophenyl)piperazin-1-yl)methanone]	10 to 1000	> 1000
Cc1c(CN2CCN(c3ccccc3Cl)CC2)cc(C(=O)N2CCN(c3ccc(F)c(F)c3)CC2)n1C [Example I-109, (4-((4-(2-chlorophenyl)piperazin-1-yl)methyl)-1,5-dimethyl-1H-pyrrol-2-yl)(4-(3,4-difluorophenyl)piperazin-1-yl)methanone]	10 to 1000	> 1000
Cc1c(CN2CCN(c3ccccc3Cl)CC2)cc(C(=O)N2CCN(c3cccc(C#N)c3)CC2)n1C [Example I-110, 3-(4-(4-((4-(2-chlorophenyl)piperazin-1-yl)methyl)-1,5-dimethyl-1H-pyrrole-2-carbonyl)piperazin-1-yl)benzonitrile]	10 to 1000	> 1000
Cc1c(CN2CCN(c3ccccc3Cl)CC2)cc(C(=O)N2CCN(c3cc(F)c(F)c(F)c3)CC2)n1C [Example I-111, (4-((4-(2-Chlorophenyl)piperazin-1-yl)methyl)-1,5-dimethyl-1H-pyrrol-2-yl)(4-(3,4,5-trifluorophenyl)piperazin-1-yl)methanone]	10 to 1000	> 3000
Cc1c(CN2CCN(c3ccccc3Cl)CC2)cc(C(=O)N2CCN(c3cccc(Cl)c3)C[C@@H]2C)n1C [Example I-112, (S)-(4-(3-chlorophenyl)-2-methylpiperazin-1-yl)(4-((4-(2-chlorophenyl)piperazin-1-yl)methyl)-1,5-dimethyl-1H-pyrrol-2-yl)methanone]	10 to 1000	> 3000

Reference: patent publication US20190389843A1, “PYRROLE mTORC INHIBITORS AND USES THEREOF” (Navitor Pharmaceuticals, Inc., priority 2016, published 2019)
